How the values were obtained:
cells = assay: cell-based dose response of TetR sensors to nootkatone (FIG. 10); details: cell-based sensor assay
Description: This is particularly useful in situations when, inter alia, a target molecule is toxic to cells in vivo and therefore a sensor to conduct cell-based detection is impractical. […] Accordingly, the detection of this target molecule would benefit from the cell-free methods described herein.

tetR = target: T1, tetR (Escherichia coli, UniProt P04483); assay: T7 in vitro transcription from tetR-controlled reporter plasmid, ATC titration; assay type: biochemical; details: 100 nM tetR and 100 nM reporter plasmid; ATC titrated 2 uM to 0 uM; 37° C., 4 hours; agarose gel readout
T1 construct: The tetR gene was cloned into the pET28a(+) E. coli expression plasmid; 6xHis (C); made in house; host or cells: E. coli BL21(DE3), pET28a(+)
T1 sequence (P04483 whole entry): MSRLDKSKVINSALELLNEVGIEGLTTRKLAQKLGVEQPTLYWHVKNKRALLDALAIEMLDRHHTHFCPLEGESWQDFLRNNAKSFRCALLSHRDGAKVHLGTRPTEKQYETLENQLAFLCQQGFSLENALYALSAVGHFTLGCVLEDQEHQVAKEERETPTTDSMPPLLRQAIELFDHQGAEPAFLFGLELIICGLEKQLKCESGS
Method: Using a fixed amount of tetR and plasmid, 100 nM each, T7 transcription reactions were set up as described above with the inclusion of a titrating amount of anhydrotetracycline (ATC), the native ligand for tetR. The ATC titration ranged from 2 uM to 0 uM. The IVT transcripts were analyzed by gel as described above. […] This titratable response is a requirement when working with engineered sensors cell-free to enrich a population for those members with improved ligand binding function in the pool.

Compound	nootkatone concentration after which there is a toxic effect and the cells start to die (cells)	ATC concentration giving a strong RNA band similar to no tetR (full derepression of transcription) (tetR)
C=C(C)[C@@H]1CCC2=CC(=O)C[C@@H](C)[C@]2(C)C1 [nootkatone]	> 0.5 mg/mL	–
Cc1c2c(c(O)c3c(O)cccc13)C(=O)[C@]1(O)C(=O)C(C(N)=O)=C(O)[C@@H](N(C)C)[C@@H]1C2 [ATC, anhydrotetracycline]	–	200 nM
